# Assay results reported in patent US12416639B2, “Reagents and methods for detecting protein lysine lactylation” (Jingjie PTM Biolab (Hangzhou) Co., Inc, priority 2018, dated 2025).
# Tests used:
# MCF-7 cells [1] = experiment: Histone Kla levels in MCF-7 cells by immunoblot (pan anti-Kla); assay type: cell-based, human
# Procedure: (§1) Intracellular lactate (a and d) and histone Kla levels (b and c) were measured from MCF-7 cells cultured in different glucose concentrations or different 2-DG concentrations in the presence of 25 mM glucose for 24 hours. Lactate was measured by a lactate colorimetric kit; n=3 biological replicates; statistical significance was determined using one-way ANOVA followed by Sidak's multiple comparisons test. Immunoblots was carried out using acid-extracted histone samples. The pan anti-Kla and anti-Kac immunoblots indicate molecular weights between 10 kD and 15 kD. e, Regulation of glycolysis and lactate production by diverse metabolic modulators. f, Intracellular lactate levels were measured in MCF-7 cells treated with indicated glycolysis modulators for 24 hours. N=3 biological replicates; statistical significance was determined using one-way ANOVA followed by Dunnett's multiple comparisons test. g-i, Immunoblots of acid extracted histones (Rotenone and DCA) or whole cell lysates (Oxamate) from MCF-7 cells in response to different glycolysis modulators. j, Intracellular lactate levels were measured in MCF-7 cells in response to hypoxia. N=4 biological replicates; statistical significance was determined using unpaired t test (Two-tailed). k, Immunoblots of acid extracted histones from MCF-7 cells under hypoxia (1% oxygen) for indicated time points. a, d, f, j, Graphs show mean with s.e.m. b, c, g, h, i, k, Data represent three independent experiments. […]
# MCF-7 cells [2] = experiment: Intracellular lactate in MCF-7 cells (lactate colorimetric kit); assay type: cell-based, human; conditions: 24 hours
# Procedure: as §1
# BMDM cells = experiment: M1 polarization (LPS+IFNγ) of BMDM cells: lactate, histone Kla, gene expression, ChIP-qPCR; assay type: cell-based, mouse
# Procedure: Intracellular lactate levels were measured using a lactate colorimetric kit (a) and global histone Kla levels were measured by immunoblots (b) 24 h-post M1 polarization. c, Gene expression were analyzed by RT-qPCR at indicated time points after M1 polarization. a-c, N=3 biological replicates. d, H3K18la occupancy was analyzed by ChIP-qPCR 24 h-post M1 polarization. Data represent three technical replicates from pooled samples. e-h, Exogeneous lactic acid (25 mM) was added to BMDM cells 4 h post-M1 polarization (LPS+IFNγ), and cells were collected at indicated time points post-M1 polarization for intracellular lactate measurement (e), histone Kla immunoblot analysis (f), gene expression analysis (g) and H3K18la occupancy analysis by ChIP-qPCR (h). e, N=3 biological replicates, f, Data represent three independent experiments. g, RPKM: Reads Per Kilobase of transcript per Million mapped reads (RPKM). N=4 biological replicates. h, Data represent three technical replicates from pooled samples. a, c, d, e, g, h, Graphs show mean with s.e.m; statistical significance was determined using Multiple t tests corrected using Holm-Sidak method (a, c, e, g).
# All animal use and experiments performed were approved by Institutional Animal Care and Use Committee (ACUP #72209) at the University of Chicago. Ldha^fl/fl mice (Jackson laboratory, 030112) and LysMcre mice (Jackson laboratory, 004781) were used to generate LysMcre^+/−Ldha^fl/fl and littermate control LysMcre^−/− Ldha^fl/fl mice. The following primers were used for genotyping: Ldha forward: […] (SEQ ID NO: 88) and Ldha reverse: […] (SEQ ID NO: 89). LysMcre: […] (SEQ ID NO: 90), LysM Common: […] (SEQ ID NO: 91) and LysM WT: […] (SEQ ID NO: 92). Macrophages were derived from bone marrow of 8-week male C57BL/6 mice following the published procedure. To induce an M1 or M2 phenotype, BMDM cells were stimulated with 5 ng/ml of LPS and 12 ng/ml of IFNγ or 20 ng/ml of interleukin 4, for 24 hours or the indicated time. To infect BMDM cells with bacteria, overnight cultures of E. coli, A. baumannii, or P. aeruginosa were diluted in RPMI-1640 and added to BMDM cells in 6-well plates at 2 and 20 multiplicity of infection. A control plate was either infected with paraformaldehyde-killed bacteria or treated with 5 ng/mL lipopolysaccharide (LPS) in the absence of bacteria. The plates were centrifuged at 2170 rpm for 30 min to promote infection, followed by a 30 min incubation in a humidified incubator at 37° C. under 5% CO2. To kill extracellular bacteria, the medium overlying the confluent cell monolayer was replaced with fresh media containing gentamicin at 100 μg/mL and the plates were further incubated for 1 h. Following incubation, media were removed from infected cells and replaced with fresh media containing 25 μg/mL of gentamicin. For consistency, LPS-treated cells and cells infected with dead bacteria were also treated with gentamicin. Cells were cultured for 24 h before lysis. Allocation of BMDM cells into different treated groups were randomized and not blinded.
# Total RNA was extracted from BMDM cells activated as indicated using a RNeasy Plus Mini Kit (74134, Qiagen, Hilden, Germany). Two to four micrograms of total RNA were used as starting material to prepare libraries using Illumina TruSeq Stranded mRNA Library Prep Kit Set A (RS-122-2101, Illumina, San Diego, CA). The libraries' size was selected by using the Agencourt AMPure XP beads (A63882, Beckman Coulter, Brea, CA), with average size of 400 bp. The libraries were sequenced using Illumina HiSeq 4000 (pair end 50 bp).
# Native ChIP was carried out following the published protocol (Cuddapah et al., Cold Spring Harb Protoc 2009, pdb prot5237, doi:10.1101/pdb.prot5237 (2009)) with spiked-in for normalization purpose. Spike-in was carried out according to vendor protocols (#61686, Active motif, Carlsbad, CA). […]
# BMDMs = experiment: U-13C6 glucose labeling of histone Kla and Kac in BMDMs during M1 polarization; assay type: cell-based, mouse
# Source text: All animal use and experiments performed were approved by Institutional Animal Care and Use Committee (ACUP #72209) at the University of Chicago. Ldha^fl/fl mice (Jackson laboratory, 030112) and LysMcre mice (Jackson laboratory, 004781) were used to generate LysMcre^+/−Ldha^fl/fl and littermate control LysMcre^−/− Ldha^fl/fl mice. The following primers were used for genotyping: Ldha forward: […] (SEQ ID NO: 88) and Ldha reverse: […] (SEQ ID NO: 89). LysMcre: […] (SEQ ID NO: 90), LysM Common: […] (SEQ ID NO: 91) and LysM WT: […] (SEQ ID NO: 92). Macrophages were derived from bone marrow of 8-week male C57BL/6 mice following the published procedure. To induce an M1 or M2 phenotype, BMDM cells were stimulated with 5 ng/ml of LPS and 12 ng/ml of IFNγ or 20 ng/ml of interleukin 4, for 24 hours or the indicated time. To infect BMDM cells with bacteria, overnight cultures of E. coli, A. baumannii, or P. aeruginosa were diluted in RPMI-1640 and added to BMDM cells in 6-well plates at 2 and 20 multiplicity of infection. […]
# The peptide samples were loaded onto a home-made capillary column (10 cm length×[…], 3 μm particle size, Dr. Maisch GmbH, Ammerbuch, Germany) connected to an EASY-nLC 1000 system (Thermo Fisher Scientific, Waltham, MA). […] The eluted peptides were then ionized and analyzed by a Q-Exactive mass spectrometer (Thermo Fisher Scientific, Waltham, MA). […]
# MCF-7 cells [3] = experiment: U-13C6 glucose labeling followed by MS/MS of histone Kla and Kac in MCF-7 cells; assay type: cell-based, human
# Procedure: The peptide samples were loaded onto a home-made capillary column (10 cm length×[…], 3 μm particle size, Dr. Maisch GmbH, Ammerbuch, Germany) connected to an EASY-nLC 1000 system (Thermo Fisher Scientific, Waltham, MA). Peptides were separated and eluted with a gradient of 2% to 90% HPLC buffer B (0.1% formic acid in acetonitrile, v/v) in buffer A (0.1% formic acid in water, v/v) at a flow rate of 200 nL/min over 60 min (34 min for coelution studies). The eluted peptides were then ionized and analyzed by a Q-Exactive mass spectrometer (Thermo Fisher Scientific, Waltham, MA). Full MS was acquired in the Orbitrap mass analyzer over the range m/z 300-1400 with a resolution of 70,000 at m/z 200. The 12 most intense ions with charge ≥2 were fragmented with normalized collision energy of 27 and tandem mass spectra were acquired with a mass resolution of 17500 at m/z 200.
# MCF-7 cells were cultured in DMEM high glucose media plus 10% FBS. To be labeled by isotopic lactate, cells were treated with 10 mM of ^13C3 sodium L-lactate for 24 hours. To be labeled by isotopic glucose, cells were switched to DMEM No-Glucose media (Gibco) for 24 hours, followed by supplementation with 25 mM of U-^13C6 D-glucose and continued culturing for three passages. Histones were extracted, digested with trypsin, immunoprecipitated using a pan anti-Kla antibody, and analyzed by HPLC/MS/MS as described above.
# MCF-7 cells [4] = experiment: Hypoxia-induced lactate production and histone Kla; assay type: cell-based, human; conditions: hypoxia (1% oxygen); cell line not given
# Procedure: as §1, with “hypoxia.” for “hypoxia. N=4 biological replicates; statistical significance was determined using unpaired t test (Two-tailed). k, Immunoblots of acid extracted histones from MCF-7 cells under hypoxia (1% oxygen) for indicated time points. a, d, f, j, Graphs show mean with s.e.m. b, c, g, h, i, k, Data represent three independent experiments.”
# [5] = target: T1, recombinant chromatin (p53- and p300-dependent) (Homo sapiens, UniProt Q09472); experiment: Cell-free recombinant chromatin-templated histone modification and transcription assay; assay type: biochemical; conditions: acetyl-CoA replaced by L-lactyl-CoA
# T1 construct: made in house
# Procedure: To examine the potential activity of p300 as a histone Kla writer in cells, we over-expressed p300 in HEK293T cells and observed a modest increase in histone Kla levels. In contrast, p300 deletion in HCT116 and HEK293T cells decreased histone Kla levels.
# Purification of recombinant proteins and chromatin assembly were performed as previously described (Tang et al., Cell 154, 297-310, doi:10.1016/j.cell.2013.06.027 (2013)). The chromatin-templated histone modification and transcription assays were as described previously (Tang et al., Cell 154, 297-310, doi:10.1016/j.cell.2013.06.027 (2013)), except that lactyl-CoA was used in place of acetyl-CoA and [α-32P] CTP was used in place of [α-32P]-UTP. The H3KR, H4KR, H2AKR, and H2BKR histone mutants were the same as previously described (Tang et al., Cell 154, 297-310, doi:10.1016/j.cell.2013.06.027 (2013)). Histone modifications were monitored by immunoblot and transcription products were monitored by autoradiography as described (Tang et al., Cell 154, 297-310, doi:10.1016/j.cell.2013.06.027 (2013)).
# [6] = M1 polarization, exogenous lactate
# [7] = exogenous lactic acid 25 mM added 4 h post-M1 polarization
# T1 sequence (Q09472 whole entry): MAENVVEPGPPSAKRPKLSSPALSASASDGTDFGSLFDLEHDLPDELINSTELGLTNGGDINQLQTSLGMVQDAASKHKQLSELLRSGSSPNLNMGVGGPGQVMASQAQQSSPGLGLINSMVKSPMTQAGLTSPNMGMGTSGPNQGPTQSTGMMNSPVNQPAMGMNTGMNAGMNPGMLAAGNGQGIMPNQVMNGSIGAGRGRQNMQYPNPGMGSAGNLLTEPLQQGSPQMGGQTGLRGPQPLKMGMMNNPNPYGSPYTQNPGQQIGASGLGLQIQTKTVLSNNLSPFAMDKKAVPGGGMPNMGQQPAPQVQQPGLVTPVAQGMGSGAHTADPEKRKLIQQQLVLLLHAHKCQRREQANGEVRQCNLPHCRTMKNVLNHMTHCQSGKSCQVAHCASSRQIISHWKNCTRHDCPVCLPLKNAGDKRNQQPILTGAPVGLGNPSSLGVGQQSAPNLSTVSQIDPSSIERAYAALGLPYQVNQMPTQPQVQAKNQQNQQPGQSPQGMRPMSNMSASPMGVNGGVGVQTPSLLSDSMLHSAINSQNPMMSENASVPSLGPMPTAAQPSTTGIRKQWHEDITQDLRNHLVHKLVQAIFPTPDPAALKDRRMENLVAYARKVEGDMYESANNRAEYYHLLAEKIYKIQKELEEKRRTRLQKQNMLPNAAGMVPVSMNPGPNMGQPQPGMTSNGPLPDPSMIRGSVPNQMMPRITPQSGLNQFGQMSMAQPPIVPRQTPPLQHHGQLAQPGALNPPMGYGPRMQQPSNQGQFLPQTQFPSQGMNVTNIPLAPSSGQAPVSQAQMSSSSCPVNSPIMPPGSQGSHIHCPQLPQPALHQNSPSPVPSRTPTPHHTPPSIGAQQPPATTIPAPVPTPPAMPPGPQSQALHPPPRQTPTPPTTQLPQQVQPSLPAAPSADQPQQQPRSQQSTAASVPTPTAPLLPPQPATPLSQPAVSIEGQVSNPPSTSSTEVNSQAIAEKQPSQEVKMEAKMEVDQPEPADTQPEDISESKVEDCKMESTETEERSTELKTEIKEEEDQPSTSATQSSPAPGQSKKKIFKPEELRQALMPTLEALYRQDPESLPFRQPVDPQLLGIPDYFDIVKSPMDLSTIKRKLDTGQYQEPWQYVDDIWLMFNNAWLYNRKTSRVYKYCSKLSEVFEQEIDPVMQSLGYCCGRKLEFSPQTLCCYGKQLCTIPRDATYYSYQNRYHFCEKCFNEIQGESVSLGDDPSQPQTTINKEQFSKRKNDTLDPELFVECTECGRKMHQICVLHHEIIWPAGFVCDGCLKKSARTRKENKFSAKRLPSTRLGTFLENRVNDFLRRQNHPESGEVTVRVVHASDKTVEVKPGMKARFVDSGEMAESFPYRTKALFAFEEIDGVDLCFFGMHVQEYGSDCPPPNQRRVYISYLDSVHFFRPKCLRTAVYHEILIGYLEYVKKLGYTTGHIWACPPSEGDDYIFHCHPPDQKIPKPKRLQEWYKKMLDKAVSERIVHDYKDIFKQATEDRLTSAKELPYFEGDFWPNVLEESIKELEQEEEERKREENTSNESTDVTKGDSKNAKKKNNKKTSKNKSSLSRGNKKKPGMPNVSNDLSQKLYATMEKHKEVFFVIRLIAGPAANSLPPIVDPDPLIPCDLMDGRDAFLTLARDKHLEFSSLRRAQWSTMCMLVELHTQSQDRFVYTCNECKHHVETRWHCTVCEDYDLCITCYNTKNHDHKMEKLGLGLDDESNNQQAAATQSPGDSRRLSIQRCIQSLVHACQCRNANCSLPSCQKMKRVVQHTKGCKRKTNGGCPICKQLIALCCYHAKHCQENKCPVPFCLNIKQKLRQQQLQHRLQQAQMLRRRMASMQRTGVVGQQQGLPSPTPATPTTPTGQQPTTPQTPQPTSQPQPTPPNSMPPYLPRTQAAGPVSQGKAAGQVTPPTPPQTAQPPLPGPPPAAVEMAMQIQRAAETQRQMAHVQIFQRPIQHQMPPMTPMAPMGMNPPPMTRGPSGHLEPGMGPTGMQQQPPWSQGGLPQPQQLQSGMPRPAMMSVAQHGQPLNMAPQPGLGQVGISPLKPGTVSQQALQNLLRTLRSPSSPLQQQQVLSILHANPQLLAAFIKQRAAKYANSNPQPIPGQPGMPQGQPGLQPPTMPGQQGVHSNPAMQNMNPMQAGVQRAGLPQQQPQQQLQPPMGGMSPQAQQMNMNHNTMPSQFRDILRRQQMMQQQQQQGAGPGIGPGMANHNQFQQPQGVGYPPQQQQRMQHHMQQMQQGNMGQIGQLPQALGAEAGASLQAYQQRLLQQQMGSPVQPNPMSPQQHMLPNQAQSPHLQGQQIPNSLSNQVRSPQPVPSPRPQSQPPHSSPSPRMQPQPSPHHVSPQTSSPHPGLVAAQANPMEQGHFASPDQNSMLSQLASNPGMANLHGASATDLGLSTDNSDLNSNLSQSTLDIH
compound,measurement,setting,value
C=C(C)[C@H]1Cc2c(ccc3c2O[C@@H]2COc4cc(OC)c(OC)cc4[C@@H]2C3=O)O1 [rotenone],histone Kla levels,MCF-7 cells [1],increased
same,intracellular lactate levels / lactate production,MCF-7 cells [2],increased
"C[C@H](O)C(=O)O [lactate, L-(+)-lactic acid]",histone Kla levels,MCF-7 cells [1],elevated in a dose-dependent fashion
same,early pro-inflammatory gene expression,BMDM cells; [6],did not affect
same,"expression of other M2-like genes, such as Vegfa",BMDM cells; [6],enhanced
same,Arg1 expression,BMDM cells; [7],induced
same,intracellular lactate,BMDM cells; [7],increased
same,histone Kla levels,"BMDM cells; exogenous lactic acid 25 mM added 4 h post-M1 polarization, immunoblot",increased
same,Kla levels at the Arg1 promoter,"BMDM cells; exogenous lactic acid 25 mM, H3K18la ChIP-qPCR",induced
GNE-140,13C incorporation into histone Kla,BMDMs,reduced
"O=CC[C@@H](O)[C@H](O)[C@H](O)CO [2-DG, 2-deoxy-D-glucose]",histone Kla levels,MCF-7 cells [1],decreased
same,intracellular lactate levels / lactate production,MCF-7 cells [2],decreased
"O=C([O-])C(Cl)Cl.[Na+] [DCA, Sodium dichloroacetate]",incorporation of 13C into histone Kac,MCF-7 cells [3],but not Kac was decreased
same,incorporation of 13C into histone Kla,MCF-7 cells [3],decreased
same,induction of histone Kla by hypoxia,MCF-7 cells [4],attenuated
same,induction of lactate production by hypoxia,MCF-7 cells [4],attenuated
same,histone Kla levels,MCF-7 cells [1],lowered
same,intracellular lactate levels / lactate production,MCF-7 cells [2],decreased
C[C@H](O)C(=O)SCCNC(=O)CCNC(=O)[C@H](O)C(C)(C)COP(=O)(O)OP(=O)(O)OC[C@H]1O[C@@H](n2cnc3c(N)ncnc32)[C@H](O)[C@@H]1OP(=O)(O)O [L-lactyl-CoA],transcription,[5]; autoradiography,a corresponding effect on transcription
same,H3 and H4 lactylation,[5]; immunoblot,"robust p53-dependent, p300-mediated H3 and H4 lactylation"
